The structures appear in SMILES notation.

What is called IC50 is the concentration that gives 50% inhibition. Lower therefore signals inhibition by little substance.

The target in the first test is T1, Neutrophil elastase (Homo sapiens, UniProt P08246).
T1 sequence (P08246 whole entry): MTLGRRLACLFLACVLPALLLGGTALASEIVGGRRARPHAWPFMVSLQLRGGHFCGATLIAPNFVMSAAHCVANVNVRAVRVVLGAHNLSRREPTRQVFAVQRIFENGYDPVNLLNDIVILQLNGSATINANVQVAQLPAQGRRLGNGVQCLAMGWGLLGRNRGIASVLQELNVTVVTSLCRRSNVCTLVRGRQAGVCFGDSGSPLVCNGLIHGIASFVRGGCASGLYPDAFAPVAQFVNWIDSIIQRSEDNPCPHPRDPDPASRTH
Put plainly: Inhibitory activity against human leukocyte elastase using MeO-Suc-Ala-Ala-Pro-Val-pNA (416 uM) as substrate.
The compound `COc1ccc2c(c1)c1c(O)oc(=O)nc1n2CCc1ccccc1` [6-Methoxy-9-phenethyl-1,9-dihydro-[1,3]oxazino[4,5-b]indole-2,4-dione] gave an IC50 above 1000 µM.

The target of a further test is T1, Neutrophil elastase. Put plainly: ChEBML_86533. How it is done:
Inhibitory activity against human leukocyte elastase using MeO-Suc-Ala-Ala-Pro-Val-pNA (416 uM) as substrate;No Inhibition
`CCCCn1c(C)c(C)c2c(O)oc(=O)nc21` [1-Butyl-2,3-dimethyl-1,7-dihydro-5-oxa-1,7-diaza-indene-4,6-dione]: the IC50 was above 1000 µM. Regarding `Cc1c(C)n(C2CCCCC2)c2nc(=O)oc(O)c12` [1-Cyclohexyl-2,3-dimethyl-1,7-dihydro-5-oxa-1,7-diaza-indene-4,6-dione], the IC50 was above 1000 µM. On the same count and under the same terms, the value for `COCCn1c2ccc(OC)cc2c2c(O)oc(=O)nc21` [6-Methoxy-9-(2-methoxy-ethyl)-1,9-dihydro-[1,3]oxazino[4,5-b]indole-2,4-dione] was above 1000 µM. In turn, `COc1ccc2c(c1)c1c(O)oc(=O)nc1n2Cc1ccccn1` [6-Methoxy-9-pyridin-2-ylmethyl-1,9-dihydro-[1,3]oxazino[4,5-b]indole-2,4-dione] registered an IC50 above 1000 µM. Same read-out and setting: the same measure for `COc1ccc2c(c1)c1c(O)oc(=O)nc1n2CC(OC)OC` [9-(2,2-Dimethoxy-ethyl)-6-methoxy-1,9-dihydro-[1,3]oxazino[4,5-b]indole-2,4-dione]: above 1000 µM; for `COc1ccc2c(c1)c1c(O)oc(=O)nc1n2C1CCCCC1` [9-Cyclohexyl-6-methoxy-1,9-dihydro-[1,3]oxazino[4,5-b]indole-2,4-dione]: above 1000 µM. Same read-out and setting: the value for `COCCn1c2ccc(OC(C)=O)cc2c2c(O)oc(=O)nc21` [Acetic acid 9-(2-methoxy-ethyl)-2,4-dioxo-1,2,4,9-tetrahydro-[1,3]oxazino[4,5-b]indol-6-yl ester] was above 1000 µM.

For the origin of these results see BindingDB's records for doi:10.1016/S0960-894X(01)80270-5 (1994).
